Reference: patent publication US20150313228A1, “SYNERGISTIC HERBICIDAL COMBINATIONS AND METHODS OF USE” (priority 2012, published 2015)
Several values for one entry are separate records, joined by “and”; a condition that tells them apart may be missing. Equal values may be shown once.

Test system: broad-leaf and grass weed species
Experiment: Field testing of pre-emergence application of dicamba and acetochlor in Argentina and/or South Africa (Example 10);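 further: percent weed control in field trials, rated at 14 days (early) and 28 days (late) after treatment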
Details: for percent control X (ACETOCHLOR ALONE): early rating (14 day); for X (acetochlor alone): late rating (28 day)

## CCOCN(C(=O)CCl)c1c(C)cccc1CC [Acetochlor, 2-chloro-N-(ethoxymethyl)-6′-ethyl-o-acetotoluidide]
AMADE, 630 g/ha
  percent control X (ACETOCHLOR ALONE): 96.7%
  X (acetochlor alone): 57.1%
AMADE, 1260 g/ha
  percent control X (ACETOCHLOR ALONE): 99.4%
  X (acetochlor alone): 69.4%
AMAQU, 630 g/ha
  percent control X (ACETOCHLOR ALONE): 64.3%
  X (acetochlor alone): 48.8%
AMAQU, 1260 g/ha
  percent control X (ACETOCHLOR ALONE): 81.4%
  X (acetochlor alone): 70.0%
ANOCR, 630 g/ha
  percent control X (ACETOCHLOR ALONE): 47.0%
  X (acetochlor alone): 31.6%
ANOCR, 1260 g/ha
  percent control X (ACETOCHLOR ALONE): 59.5%
  X (acetochlor alone): 45.2%
BIDPI, 630 g/ha
  percent control X (ACETOCHLOR ALONE): 17.5%
  X (acetochlor alone): 0.0%
BIDPI, 1260 g/ha
  percent control X (ACETOCHLOR ALONE): 47.5%
  X (acetochlor alone): 27.5%
BRAER, 630 g/ha
  X (acetochlor alone): 47.5%
BRAER, 1260 g/ha
  X (acetochlor alone): 65.0%
CHEAL, 630 g/ha
  percent control X (ACETOCHLOR ALONE): 46.7%
  X (acetochlor alone): 80.3%
CHEAL, 1260 g/ha
  percent control X (ACETOCHLOR ALONE): 50.0%
  X (acetochlor alone): 77.0%
CHRGA, 630 g/ha
  percent control X (ACETOCHLOR ALONE): 0.0%
  X (acetochlor alone): 0.0%
CHRGA, 1260 g/ha
  percent control X (ACETOCHLOR ALONE): 86.0%
  X (acetochlor alone): 10.0%
COMBE, 630 g/ha
  percent control X (ACETOCHLOR ALONE): 0.0%
  X (acetochlor alone): 0.0%
COMBE, 1260 g/ha
  percent control X (ACETOCHLOR ALONE): 12.5%
  X (acetochlor alone): 0.0%
CONFA, 630 g/ha
  percent control X (ACETOCHLOR ALONE): 10.0%
  X (acetochlor alone): 0.0%
CONFA, 1260 g/ha
  percent control X (ACETOCHLOR ALONE): 77.5%
  X (acetochlor alone): 12.5%
CYNDA, 630 g/ha
  percent control X (ACETOCHLOR ALONE): 30.0%
CYNDA, 1260 g/ha
  percent control X (ACETOCHLOR ALONE): 49.2%
CYPES, 630 g/ha
  percent control X (ACETOCHLOR ALONE): 0.0%
  X (acetochlor alone): 26.3%
CYPES, 1260 g/ha
  percent control X (ACETOCHLOR ALONE): 0.0%
  X (acetochlor alone): 33.3%
CYPRO, 630 g/ha
  percent control X (ACETOCHLOR ALONE): 44.1%
  X (acetochlor alone): 17.1%
CYPRO, 1260 g/ha
  percent control X (ACETOCHLOR ALONE): 51.0%
  X (acetochlor alone): 25.8%
DATFE, 630 g/ha
  percent control X (ACETOCHLOR ALONE): 62.2%
  X (acetochlor alone): 44.5%
DATFE, 1260 g/ha
  percent control X (ACETOCHLOR ALONE): 72.3%
  X (acetochlor alone): 58.5%
DIGER, 630 g/ha
  percent control X (ACETOCHLOR ALONE): 0.0%
  X (acetochlor alone): 0.0%
DIGER, 1260 g/ha
  percent control X (ACETOCHLOR ALONE): 86.0%
  X (acetochlor alone): 12.5% and 12.4%
DIGSA, 630 g/ha
  percent control X (ACETOCHLOR ALONE): 63.1%
  X (acetochlor alone): 51.3%
DIGSA, 1260 g/ha
  percent control X (ACETOCHLOR ALONE): 72.1%
  X (acetochlor alone): 59.2%
DTTAE, 630 g/ha
  X (acetochlor alone): 0.0%
DTTAE, 1260 g/ha
  X (acetochlor alone): 10.0%
ELEAF, 630 g/ha
  percent control X (ACETOCHLOR ALONE): 88.3%
  X (acetochlor alone): 20.3%
ELEAF, 1260 g/ha
  percent control X (ACETOCHLOR ALONE): 85.9%
  X (acetochlor alone): 28.3%
HIBCA, 630 g/ha
  percent control X (ACETOCHLOR ALONE): 55.0%
  X (acetochlor alone): 37.5%
HIBCA, 1260 g/ha
  percent control X (ACETOCHLOR ALONE): 89.5%
  X (acetochlor alone): 96.5%
IPOBA, 630 g/ha
  X (acetochlor alone): 0.0%
IPOBA, 1260 g/ha
  X (acetochlor alone): 0.0%
IPOPD, 630 g/ha
  percent control X (ACETOCHLOR ALONE): 27.5%
  X (acetochlor alone): 21.2%
IPOPD, 1260 g/ha
  percent control X (ACETOCHLOR ALONE): 71.3%
  X (acetochlor alone): 63.0%
OVERALL, 630 g/ha
  percent control X (ACETOCHLOR ALONE): 49.8%
OVERALL, 1260 g/ha
  percent control X (ACETOCHLOR ALONE): 64.2%
Overall, 630 g/ha
  X (acetochlor alone): 37.8%
Overall, 1260 g/ha
  X (acetochlor alone): 50.8%
PERCENT WEED FREE, 1260 g/ha
  percent control X (ACETOCHLOR ALONE): 75.5%
POROL, 630 g/ha
  percent control X (ACETOCHLOR ALONE): 38.6%
  X (acetochlor alone): 26.7%
POROL, 1260 g/ha
  percent control X (ACETOCHLOR ALONE): 47.5%
  X (acetochlor alone): 37.8%
Percent Weed Free, 630 g/ha
  X (acetochlor alone): 53.2%
Percent Weed Free, 1260 g/ha
  X (acetochlor alone): 63.8%
RCHBR, 630 g/ha
  percent control X (ACETOCHLOR ALONE): 57.0%
  X (acetochlor alone): 22.5%
RCHBR, 1260 g/ha
  percent control X (ACETOCHLOR ALONE): 87.7%
  X (acetochlor alone): 67.4%
TAGMI, 630 g/ha
  percent control X (ACETOCHLOR ALONE): 89.9%
  X (acetochlor alone): 45.8%
TAGMI, 1260 g/ha
  percent control X (ACETOCHLOR ALONE): 95.3%
  X (acetochlor alone): 65.0%
XANST, 630 g/ha
  percent control X (ACETOCHLOR ALONE): 59.7%
  X (acetochlor alone): 33.7%
XANST, 1260 g/ha
  percent control X (ACETOCHLOR ALONE): 72.6%
  X (acetochlor alone): 37.7%
